Source: US4719211A, “2,3,4,9-tetrahydro-2-heteroarylalkyl-1H-pyrido(3,4-B)indoles having antihypertensive properties” (American Home Products Corporation, priority 1986, dated 1988)
pKi: −log10 of the molar value. Structures can show the parent of a compound that is named as a salt.

Experiments:
[1] = test system: spontaneously hypertensive rat (SHR); assay: Antihypertensive effect: change in systolic blood pressure in spontaneously hypertensive rats (tail plethysmography); type: in vivo
Description: The systolic blood pressure of male conscious, spontaneously hypertensive rat (SHR) (Taconic Farms) is measured by indirect tail plethysmography using a system designed and built by Narco Bio-Systems-(Model MK-IV). Groups consisting of 4 rats receive a single oral dose of the test compound. Rats are warmed in a heated chamber at 38° C. for 10 minutes prior to measurement of systolic pressure to increase the accuracy of measurements.
The systolic pressure and heart rate data are collected in an Hewlett Packard 88 computer. Data are grouped and summarized, with the mean change in pressure and heart rate at each time period calculated.
Unless otherwise noted, the compound was tested in the form in which it was obtained in the example.

[2] = test system: rats; assay: Conditioned avoidance response procedure (response lever); type: in vivo; settings: ip, rat, i.p.; for ED50: read-out: AB50 (dose producing 50% block in avoidance responding)
Description: In conditioned avoidance response type procedures, the effect of the drug on the subject animals previously trained ability to avoid and/or escape a shock is measured. […] If the compound blocks the subject animal's ability to escape the shock, then the compound is judged to have a sedative effect.
In this procedure, rats trained previously are placed in plexiglass experimental chambers equipped with a response lever, house light, and sonalert. A steel grid floor is wired for presentation of electric shock. Each trial consists of a fifteen-second warning tone (conditioned stimulus), continuing for an additional fifteen seconds accompanied by electric shock, (unconditioned stimulus). The rat can terminate a trial at any point by depression of the response lever. A response during the initial fifteen-second warning tone ends the trial before shock delivery and is considered an avoidance response, while a response occuring during shock delivery is an escape response. Trials are presented on a variable interval schedule of two minutes. The session consists of sixty trials. Animals are run two to three times weekly with control sessions always preceding a drug run, and with at least one day intervening, compounds are administered i.p. (p.o., s.c.) at appropriate pre-treatment times to a minimum of five to six rats at each dose level over a range of doses.
The following experimental parameters are recorded by computer: (1) the number of intertrial interval responses, (2) the number of avoidance responses, (3) the number of escape responses, and (4) the number of trials in which no response occured.
Response counts are summed over all subjects at a given dose. […] This number is expressed as a percentage of the total trials. Control performance is assumed to be 100% for avoidance and escape responding and the dose calculated to produce a 50% block in avoidance responding (AB50) is obtained from a dose-effect regression line fitted by the method of least squares. […] If both AB50 's and EB20 's can be calculated, a dose ratio can be determined according to the following formula: […]

[3] = target: T1, limbic D-2 dopamine receptor (Rattus norvegicus, UniProt P61169); assay: Inhibition of limbic D-2 dopamine receptor binding (3H-spiroperidol, rat limbic brain homogenate); settings: 0.3 nM 3H-spiroperidol, read-out: Ki (and 95% confidence interval)
T1 construct: Limbic brain tissue (nucleus accumbens, septal area, olfactory tubercle) is dissected and homogenized on ice; from tissue; host or cells: rat limbic brain tissue (nucleus accumbens, septal area, olfactory tubercle), washed membrane homogenate
T1 sequence (P61169 whole entry): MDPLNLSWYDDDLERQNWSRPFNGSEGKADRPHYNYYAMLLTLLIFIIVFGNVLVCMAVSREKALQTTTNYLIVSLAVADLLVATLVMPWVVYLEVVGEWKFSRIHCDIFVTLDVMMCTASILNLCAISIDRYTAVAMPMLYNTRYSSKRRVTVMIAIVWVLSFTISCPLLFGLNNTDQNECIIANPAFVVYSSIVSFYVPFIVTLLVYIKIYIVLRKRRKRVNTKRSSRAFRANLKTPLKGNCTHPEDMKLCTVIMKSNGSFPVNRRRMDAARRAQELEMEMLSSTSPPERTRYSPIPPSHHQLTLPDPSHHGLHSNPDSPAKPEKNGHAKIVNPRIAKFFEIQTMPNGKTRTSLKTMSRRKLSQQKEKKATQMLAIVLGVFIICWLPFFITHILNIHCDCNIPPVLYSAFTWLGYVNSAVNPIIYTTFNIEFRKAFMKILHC
Description: Several rats are decapitated and the brains are rapidly removed. […] The homogenate is then diluted 4-fold with buffer and centrifuged at 30,000×g for 20 min, and the supernatant is discarded. The pellet is resuspended in the same volume of buffer and recentrifuged as before, again discarding the supernatant. This pellet is then resuspended in the same volume of buffer used in the homogenization, and the protein content of this preparation is assayed by the Lowry method. The homogenate is stored frozen at -70° C. until use.
The vials are then counted in a Packard 460CD scintillation counter.
Specific binding is defined as total binding less binding in the presence of 1 μM (+)butaclamol. Binding in the presence of various concentrations of test drug is expressed as a percent of specific binding when no drug is present. […] Linear regression analysis then yields a straight line with 95% confidence limits from which an IC50 can be inversely predicted. Ki (inhibition constant) for the test drug is then calculated by the formula: [formula]

[4] = test system: male CF-1 mice; assay: Antagonism of apomorphine-induced stereotyped behavior in mice; type: in vivo, mouse; settings: apomorphine 10 mg/kg s.c.
Description: In the second procedure, the compound's (drug's) abiltiy to antagonize apomorphine-induced stereotyped behavior in mice is measured. In the procedure, 20-25 g male CF-1 mice (Charles River) are tested one week before the experiment for a positive stereotyped response to 10 mg/kg s.c. apomorphine. Test compounds, suspended or solubilized in 0.25% Tween 80 ® in water, are administered at several dose levels to male mice (6/dose level). A control group, run simultaneously with drug groups, receives equal volumes of solvent. Thiry minutes later (i.p. administration) or 60 minutes later (p.o administration), drug-treated and control mice are challenged with 10 mg/kg apomorphine s.c. Five minutes after the injection, the rearing-head-bobbing-licking syndrome induced by apomorphine is recorded as present or absent for each animal. Readings are repeated every 5 minutes during a 30 minute test session. The number of positive or negative 5-minute intervals during which apoomorphine-induced stereotyped behavior is present or absent. ED50 values (with 95% confidence intervals) are calculated for inhibition of apomorphine-inducedstereotyped behavior, by a simple linear regression analysis with inverse prediction.

[5] = SHR, single oral dose 50 mg/kg, 1.5 hrs.
[6] = SHR, single oral dose 50 mg/kg, 4 hrs.
[7] = SHR, single oral dose 10 mg/kg, 1.5 hrs.
[8] = SHR, single oral dose 10 mg/kg, 4 hrs.

Cl.Cl.c1ccc2nc(CN3CCc4c([nH]c5ccccc45)C3)ccc2c1 [2,3,4,9-tetrahydro-2-(2-quinolinylmethyl)-1H-pyrido[3,4-b]-indole, dihydrochloride, reference compound]
Change in Blood Pressure ([1]; 50 mg/kg, time not stated, did not lower blood pressure significantly): -10 mm Hg

c1ccc2c3c([nH]c2c1)CN(Cc1ccncc1)CC3 [Example 1, 2,3,4,9-Tetrahydro-2-(4-Pyridinylmethyl)-1H-Pyrido-[3,4-b]Indole, Dihydrochloride Hemihydrate]
Change in Blood Pressure [1, 5]: -27 mm of Hg.
Change in Blood Pressure [1, 6]: -35 mm of Hg.

Cl.Cl.c1ccc2c3c([nH]c2c1)CN(CCc1ccncc1)CC3 [Example 2, 2,3,4,9-Tetrahydro-2-[2-(4-Pyridinyl)ethyl]-1H-Pyrido[3,4-b]Indole, Dihydrochloride]
Change in Blood Pressure [1, 7]: -73 mm of Hg.
Change in Blood Pressure [1, 8]: -30 mm of Hg.
Change in Blood Pressure ([1]; SHR, single oral dose 25 mg/kg, 1.5 hrs.): -18 mm of Hg.
Change in Blood Pressure ([1]; SHR, single oral dose 25 mg/kg, 4 hrs.): -58 mm of Hg.
Change in Blood Pressure [1, 5]: -79 mm of Hg.
Change in Blood Pressure [1, 6]: -57 mm of Hg.

Cl.Cl.O.c1ccc2c3c([nH]c2c1)CN(CCCCCCCc1ccncc1)CC3 [Example 3, 2,3,4,9-Tetrahydro-2-[7-(4-Pyridinyl)heptyl]-1H-Pyrido[3,4-b]Indole, Dihydrochloride Hydrate]
Change in Blood Pressure [1, 5]: -44 mm of Hg.
Change in Blood Pressure [1, 6]: -58 mm of Hg.

Cl.Cl.c1ccc2c3c([nH]c2c1)CN(CCCCc1ccncc1)CC3 [Example 4, 2,3,4,9-Tetrahydro-2-[4-(4-Pyridinyl)butyl]-1H-Pyrido[3,4-b]Indole Dihydrochloride]
Change in Blood Pressure [1, 7]: -43 mm of Hg.
Change in Blood Pressure [1, 8]: -39 mm of Hg.
Change in Blood Pressure [1, 5]: -105 mm of Hg.
Change in Blood Pressure [1, 6]: -115 mm of Hg.
ED50 [2]: 14.1 mg/kg

Cl.Cl.c1ccc2nc(CCN3CCc4c([nH]c5ccccc45)C3)ccc2c1 [Example 5, 2,3,4,9-Tetrahydro-2-[2-(2-Quinolinyl)ethyl]-1H-Pyrido[3,4-b]Indole Dihydrochloride]
Change in Blood Pressure [1, 7]: -25 mm of Hg.
Change in Blood Pressure [1, 5]: -98 mm of Hg.
Change in Blood Pressure [1, 6]: -84 mm of Hg.
pKi [3]: 6.78
minimal effective dose ([2]; read-out: dose down to which the avoidance response is blocked in a dose dependant manner): ≤ 15 mg/kg
ED50 ([4]; Mus musculus, ip, read-out: ED50 for inhibition of apomorphine-induced stereotyped behavior): 18 mg/kg
ED50 for inhibition of apomorphine-induced stereotyped behavior ([4]; i.p., Dihydrochloride): 20.37 mg/kg

Cl.Cl.c1ccc2c(CCCCN3CCc4c([nH]c5ccccc45)C3)ccnc2c1 [Example 6, 2,3,4,9-Tetrahydro-2-[4-(4-Quinolinyl)butyl]-1H-Pyrido[3,4-b]Indole, Dihydrochloride]
Change in Blood Pressure [1, 5]: -94 mm of Hg.

Cl.Cl.c1ccc2c3c([nH]c2c1)CN(CCc1cnccn1)CC3 [Example 7, 2,3,4,9-Tetrahydro-2-[2-(2Pyrazinyl)ethyl]-1H-Pyrido[3,4-b]Indole, Dihydrochloride]
Change in Blood Pressure ([1]; SHR, single oral dose 5 mg/kg, 1.5 hrs.): -14 mm of Hg.
Change in Blood Pressure [1, 5]: -110 mm of Hg.
Change in Blood Pressure [1, 6]: -104 mm of Hg.

Cl.Cl.c1ccc2nc(CCCCN3CCc4c([nH]c5ccccc45)C3)ccc2c1 [Example 8, 2,3,4,9-Tetrahydro-2-[4-(2-Quinolinyl)butyl]1H-Pyrido[3,4-b]Indole, Dihydrochloride]
ED50 [2]: 31 mg/kg

c1ccc(CCN2CCc3c([nH]c4ccccc34)C2)nc1 [Example 9, 2,3,4,9-Tetrahydro-2-[2-(2-Pyridinyl)ethyl]-1H-pyrido[3,4-b]-indole, Dihydrochloride.]
ED50 [2]: 22.6 mg/kg

Cl.Cl.c1cncc(CCCN2CCc3c([nH]c4ccccc34)C2)c1 [Example 13, 2,3,4,9-Tetrahydro-2-[3-(3-Pyridinyl)propyl]1H-pyrido[3,4-b]indole, dihydrochloride]
ED50 [2]: 20.9 mg/kg
